Laboratory results as given in patent US20180028507A1, “3-CARBAMOYLPHENYL-4-CARBOXAMIDE AND ISOPHTALAMIDE DERIVATIVES AS INHIBITORS OF THE WNT SIGNALLING PATHWAY” (Bayer Pharma Aktiengesellschaft, priority 2015, published 2018).

How the values were obtained:
[1] = tested on: HCT116 cells cotransfected with the FOP control vector (non-functional TCF elements); assay: HCT116 FOPFlash control reporter assay (FOP control vector, luciferase); format: cell-based; conditions: Homo sapiens, HCT-116, 36 hours incubation, dilution series 50 μM to 15 nM, luciferase expression
Method: In a parallel approach, HCT116 cells were cotransfected with the FOP control vector and pcDNA3. The FOP vector is identical to the TOP construct, but it contains instead of functional TCF elements a randomized, non-functional sequence. For this transfection a stable transfected cell line was generated as well.
(§1) In preparation of the assay, the two cell lines were plated 24 hours before at 10000 cells per well of a 384 micro titre plate (MTP) in 30 μL growth medium. Selective inhibitory activity for small molecules on the mutated Wnt pathway was determined after parallel incubation of both (TOP and FOP) HCT116 reporter cell lines with a compound dilution series from 50 μM to 15 nM in steps of 3.16-fold dilutions in CAFTY buffer (130 mM NaCl, 5 mM KCl, 20 mM HEPES, 1 mM MgCl2, 5 mM NaHCO3, pH 7.4) containing 2 mM Ca^2+ and 0.01% BSA. The compounds were thereby serially prediluted in 100% DMSO and thereafter in addition 50 fold into the CAFTY compound dilution buffer (described above). From this dilution 10 μL were added to the cells in 30 μL growth medium and incubated for 36 hours at 37° C. and 5% CO2.

[2] = tested on: constitutive active colorectal cancer cell (CRC) Wnt pathway; assay: HCT116 TOPFlash cellular reporter assay (Super TopFlash vector, luciferase); format: cell-based; conditions: Homo sapiens, HCT-116; HCT116 Super TopFlash reporter cells, 36 hours incubation, dilution series 50 μM to 15 nM, luciferase expression
Method: In order to discover and characterize small molecules which inhibit the constitutive active colorectal cancer cell (CRC) Wnt pathway, a cellular reporter assay was employed. The corresponding assay cell was generated by transfection of the colorectal cancer cell line HCT116 (ATCC, #CCL-247) with the Super TopFlash vector (Morin, Science 275, 1997, 1787-1790; Molenaar et al., Cell 86 (3), 1996, 391-399). The HCT116 cell line is cultivated at 37° C. and 5% CO2 in DMEM/F-12 (Life Technologies, #11320-074), supplemented with 2 mM glutamine, 20 mM HEPES, 1.4 mM pyruvate, 0.15% Na-bicarbonate and 10% foetal bovine serum (GIBCO, #10270), this cancer cell line is pathophysiological relevant since it carries a deletion of position S45 in the β-catenin gene, leading to constitutive active Wnt signaling. Stable transfectants were generated by cotransfection with pcDNA3 and selection of stable transfected cells with 1 mg/ml G418.
as §1

IC50 [1]	IC50 [2]	SMILES
≥ 50000 nM	1700 nM	O=C(Nc1ccc(-c2cccnc2)cn1)c1ccc(OC(F)(F)F)c(C(=O)NCc2cnccn2)c1 [Example 50, N^1-(3,3′-bipyridin-6-yl)-N^3-(pyrazin-2-ylmethyl)-4-(trifluoromethoxy) isophthalamide]
≥ 50000 nM	675 nM	O=C(Nc1ccc(-c2ccccc2F)nc1)c1ccc(OC(F)(F)F)c(C(=O)Nc2ccncc2)c1 [Example 17, N^1-[6-(2-fluorophenyl)pyridin-3-yl]-N^3-(pyridin-4-yl)-4-(trifluoromethoxy)isophthalamide]
7550 nM	335 nM	O=C(Nc1ccc(-c2ccccc2)cc1)c1ccc(OC(F)(F)F)c(C(=O)Nc2ccncc2)c1 [Example 20, N^1-(biphenyl-4-yl)-N^3-(pyridin-4-yl)-4-(trifluoromethoxy)isophthalamide]
